# Assay: Physical stability and aqueous dissolution of monohydrate versus anhydrate form
# Assay type: physicochemical
compound,measurement,value
"COc1ccc(COc2ccc(Cn3c(N)nc4cc(-c5cnn(C)c5)cnc43)cc2OC)cc1 [GZ389988, 3-(3-methoxy-4-((4-methoxybenzyl)oxy)benzyl)-6-(1-methyl-1H-pyrazol-4-yl)-3H-imidazo[4,5-b]pyridin-2-amine]",stability in solution,relatively unstable in solution
"COc1ccc(COc2ccc(Cn3c(N)nc4cc(-c5cnn(C)c5)cnc43)cc2OC)cc1 [GZ389988A, 3-(3-methoxy-4-((4-methoxybenzyl)oxy)benzyl)-6-(1-methyl-1H-pyrazol-4-yl)-3H-imidazo[4,5-b]pyridin-2-amine monohydrate]",aqueous dissolution compared to the anhydrate form,slower aqueous dissolution
same,physical stability compared to the anhydrate form,better physical stability

# Reference: US11110055B2, “Pharmaceutical formulations of tropomyosin related kinase (TRK) inhibitors” (Genzyme Corporation, priority 2014, dated 2021)
